Counter-ions that a name gives are not always drawn.
Tests used:
Type in all cases: biochemical, human
[1] = LPI (labile plasma iron) assay without NTA; settings: for serum concentration of chelator required for reducing LPI by 2 μM: 2 hr incubation with thalassemia serum at room temperature, LPI assay without NTA; for effect of added serum component on measured LPI values: added to sera from 6 thalassemic patients, citrate 0.15 mM, albumin 10 mg/ml, uric acid 0.5 mM
Procedure: Determination of LPI and DCI. The properties of the assays used in this study in their different modalities are compiled in Table 2, below.
(§1) LPI determination, The LPI (Labile iron in plasma) assay was used as described previously or in the presence of NTA added from a concentrated solution. In experiments testing the effects of various additives on LPI, 20 μl of the additives dissolved in HBS (HEPES buffered saline composed of 20 mM HEPES, 150 mM NaCl, pH 7.4) were mixed with 20 μl of serum. Control samples and iron standards were similarly diluted with HBS. LPI assays without added NTA (‘redox-active LPI’) are designated “LPI” and LPI assays with added NTA (0.5 mM unless stated otherwise) are designated “eLPI”.
Measurements of LPI were originally designed for the detection of labile forms of iron in native human plasma or serum. The purpose was to assess if those labile forms could serve as indicators of impending tissue iron overload and as direct targets of chelation, on the basis that they should be comprised of chemical forms that are distinguishable from the non-labile Tf-bound iron in that they are redox-active, exchangeable with other ligands and accessible to chelators. This led to simple and sensitive assays that are performed under nearly physiological conditions, with 40 μM ascorbate added to initiate redox cycling of the iron and ensuing generation of reactive oxygen species (ROS) that are quantified by a fluorescence assay (Table 1). […] Thus, the assay avoids the inadvertent detection of transferrin-bound iron or labile iron-chelates. The detected LPI reflects the most labile or redox-active forms of NTBI in native plasma or serum, but not putative forms bound to non-labile ligands (e.g. citrate, albumin) In addition, the detection of LPI might be susceptible to masking by plasma antioxidants. […] For comparison, they also used a more direct assay for NTBI, in which DFO-chelatable iron is determined by its stoichiometric binding to the probe fluorescein-DFO in the presence and absence of an iron mobilizing agent.

[2] = DCI (directly chelatable iron) assay with fluorescein-DFO; settings: for effect of added serum component on DCI values: added to thalassemia sera
From the text: DCI determination. The DCI assay (directly chelatable iron) was used for sample analysis of labile iron by assessing its binding to fluorescein-DFO (Table 1) with a fluorescence plate reader or adapted for flow cytometry using as analytical probe fluorescein and DFO covalently coupled to chemically modified polystyrene beads (Spherotec Inc., Lake Forest, Ill., USA) (and an Eclipse instrument (iCyt, Champaign, Ill., USA) (Breuer et al, to be published elsewhere). In tests of the effect of NTA on DCI determination, NTA was added from a stock solution directly to the assay reagents. In experiments testing the effects of various additives on DCI, 20 μl of the additives dissolved in HBS were mixed with 20 μl of serum samples and the combined mixture (40 μl) was used in the assay. Control samples and iron standards were similarly diluted with HBS. In previous publications the term DCI has always indicated the assay format without NTA. In the present work the two formats of the
DCI assay are designated DCI (−) (without NTA) and DCI (+) (with 0.1 mM NTA).
For comparing eLPI with NTBI, the present inventors have employed an alternative assay for NTBI, termed directly-chelatable iron or DCI (FIG. 2, lower panel). Unlike LPI and eLPI which measure iron redox activity, DCI measures the accessibility of NTBI to a fluorescent, high-affinity chelator probe (fluorescein-DFO). […] This was confirmed by testing 22 TM sera for DCI without and with 0.1 mM NTA. An average increase of 0.14±0.13 μM was obtained in the presence of NTA (Breuer, W. and Cabantchik, Z. I, unpublished observations). The concentration of NTA in the DCI assay had to be limited to 0.1 mM to avoid contributions from holo-Tf-iron. Release of iron from holo-Tf by various carboxylate ligands such as NTA in combination with DFO has been documented previously. […] The present inventors tentatively attribute the exogenous albumin-mediated reduction of DCI to the binding of the fluorescein moiety of fluorescein-DFO to one of purified-albumin's hydrophobic binding sites, leading to a partial loss of sensitivity to quenching of the fluorescent chelator by iron. As the majority of such sites is normally occupied in plasma, their interference with the above assay should be minor

[3] = eLPI assay (LPI assay with added NTA); settings: for serum concentration of chelator required for reducing eLPI by 2 μM: 2 hr incubation with thalassemia serum at room temperature, eLPI assay (0.5 mM NTA)
Procedure: as §1
As the iron-mobilizing effect of NTA on NTBI has been previously shown to be dependent on the NTA concentration, the effect of increasing NTA concentrations on LPI levels in 9 representative sera: 7 from thalassemia patients and 2 from normal individuals (FIG. 1) was assessed. […] The detected LPI signal reached maximum levels at 0.1 mM NTA in sera with LPI <1 μM and at 0.5 mM NTA in thalassemic sera with LPI >1 μM. Control sera […] remained LPI-negative at all tested concentrations of NTA, a finding corroborated in LPI tests carried out with 0.5 mM NTA on >100 sera from normal individuals (data not shown). The same values of LPI were obtained when sera were assayed with 0.5 mM NTA present in the final assay solution or when sera were preincubated with NTA for 1 hr prior to 10-fold dilution with assay solution lacking NTA. Based on the relatively fast (within minutes) and distinct extraction/mobilization of LPI components by moderate NTA treatment depicted in FIG. 1, a modality of the original LPI assay by incorporating 0.5mM NTA as extracting/mobilizing agent was adopted and referred to as enhanced LPI (eLPI).

| Compound | serum concentration of chelator required for reducing LPI by 2 μM [1] [µM] | serum concentration of chelator required for reducing eLPI by 2 μM [3] [µM] | effect of added serum component on measured LPI values [1] | effect of added serum component on DCI values [2] | other results |
| --- | --- | --- | --- | --- | --- |
| CC(=O)N(O)CCCCCNC(=O)CCC(=O)N(O)CCCCCNC(=O)CCC(=O)N(O)CCCCCN [DFO, deferrioxamine] | < 10 | ~10 | – | – | competition with fluorescein-DFO in preventing the detection of DCI ([2]; DCI assays without and with NTA): competed efficiently |
| Cc1c(O)c(=O)ccn1C [DFP, 1,2-dimethyl-3-hydroxypyridin-4-one] | ~25 | ~75 | – | – | concentration in the serum required to decrease DCI by 2 μM, compared with LPI and eLPI ([2]; DCI assays without and with NTA, 2 hr incubation with thalassemia serum): markedly greater |
| O=C(O)CC(O)(CC(=O)O)C(=O)O [citrate, sodium citrate] | – | – | significantly attenuated | Neither citrate nor uric acid significantly affected DCI values | – |
| O=c1[nH]c(=O)c2[nH]c(=O)[nH]c2[nH]1 [uric acid] | – | – | significantly attenuated | Neither citrate nor uric acid significantly affected DCI values | – |
| iron-saturated Tf: human apo-Tf saturated with iron (ferrous ammonium sulfate), dialyzed | – | – | – | – | effect of added serum component on eLPI values ([3]; 1 mg/ml added to 6 thalassemia sera in the presence of NTA): no significant effect |

— patent publication US9291619B2, “Method for detecting non-transferrin bound iron” (Yissum Research Development Company of the Hebrew …, priority 2011, dated 2016)
